Counter-ions that a name gives are not always drawn.

With `C=CC[C@H](C(N)=O)[C@@H](CC(C)C)C(=O)NC1N=C(c2cccc(OC)c2)c2ccccc2N(C)C1=O` (stereo partly shown), the melting point was in the range of 225 to 230 °C.

For `C=CC[C@H](C(N)=O)[C@@H](CC(C)C)C(=O)NC1N=C(c2ccccc2)c2cc(OC)ccc2N(C)C1=O` (stereo partly shown), the melting point is 244 to 255 °C.

Consider `CC(C)C[C@@H](C(=O)N[C@H]1N=C(c2ccccc2)c2ccccc2N(C)C1=O)[C@@H](CC1CC1)C(N)=O` (as salt: succinate), for which the melting point fell in the range of 146 to 148 °C.

In the case of `C=CC[C@H](C(N)=O)[C@@H](CC(C)C)C(=O)NC1N=C(c2cccnc2)c2ccccc2N(C)C1=O` (stereo partly shown), the melting point lay within 251 to 253 °C.

`C=CC[C@H](C(N)=O)[C@@H](CC(C)C)C(=O)NC1N=C(N(C)c2ccccc2)c2ccccc2N(C)C1=O` (stereo partly drawn) [Example 21, (2R,3S) N1-[1,3-dihydro-1-methyl-2-oxo-5-(N-methyl-N-phenylamino)-2H-1,4-benzodiazepin-3-yl]-2-(2-methylpropyl)-3-allyl-butanediamide]: the melting point fell in the range of 266.6 to 267.8 °C.

`C=CC[C@H](C(N)=O)[C@@H](CC(C)C)C(=O)NC1N=C(N2CCCCCC2)c2ccccc2N(C)C1=O` (stereo partly drawn) [Example 23, (2R,3S) N1-[1,3-dihydro-1-methyl-2-oxo-5-(N-homopiperidinyl)-2H-1,4-benzodiazepin-3-yl]-2-(2-methylpropyl)-3-allyl-butanediamide] showed a melting point of 232 to 237 °C.

As to `C=CC[C@H](C(N)=O)[C@@H](CC(C)C)C(=O)NC1N=C(N2CCOCC2)c2ccccc2N(C)C1=O` (stereo partly drawn) [Example 19, (2R,3S) N1-[1,3-dihydro-1-methyl-2-oxo-5-(N-morpholino)-2H-1,4-benzodiazepin-3-yl]-2-(2-methylpropyl)-3-allyl-butanediamide], the melting point lay in the range of 145 to 151 °C.

For `C=CC[C@H](C(N)=O)[C@@H](CC(C)C)C(=O)NC1N=C(N(C)C)c2ccccc2N(C)C1=O` (stereo partly drawn) [Example 20, (2R,3S) N1-[1,3-dihydro-1-methyl-2-oxo-5-(dimethylamino)-2H-1,4-benzodiazepin-3-yl]-2-(2-methylpropyl)-3-allyl-butanediamide], the melting point is 230 to 232 °C.

For the molecule `C=CC[C@H](C(N)=O)[C@@H](CC(C)C)C(=O)NC1N=C(N2CCCCC2)c2ccccc2N(C)C1=O` (stereo partly drawn) [Example 22, (2R,3S) N1-[1,3-dihydro-1-methyl-2-oxo-5-(N-piperidinyl)-2H-1,4-benzodiazepin-3-yl]-2-(2-methylpropyl)-3-allyl-butanediamide], the melting point lay within 231 to 238 °C.

For `C=CC[C@H](C(N)=O)[C@@H](CC(C)C)C(=O)NC1C(=O)N(C)c2ccccc2-c2ccccc21` (stereo partly drawn) [Example 47, (2R,3S) N1-[6,7-dihydro-5-methyl-6-oxo-5H-dibenz[b,d]azepin-7-yl]-2-(2-methylpropyl)-3-allyl-butanediamide], the melting point was 137 to 145 °C.

A word on the melting point: it is the temperature of the solid-liquid transition.

Values taken from patent publication US7456172B2, “Succinoylamino benzodiazepines as inhibitors of Aβ protein production” (Bristol-Myers Squibb Pharma Company, priority 1998, dated 2008).
